Measured values from EP0745595A1, “3-(3-Aryloxyphenyl)-1-(substituted methyl)-s-triazine-2,4,6-oxo or thiotrione herbicidal agents” (American Cyanamid Company, priority 1995, dated 1996).

Columns and labels:
Assay type in all cases: in vivo
[1] = test system: SAGITTARIA PYGMAEA, L.; assay: Preemergence weed control under flooded paddy conditions, SAGPY (Arrowhead (Pygmaea)); details: preemergence, 3-4 weeks after treatment
Procedure, shortened: (§1)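 Seeds or propagules were planted 0.5 cm deep in silt loam, with flood water held at 1.5 to 3 cm. Compound in 50/50 aqueous/acetone was pipetted into the flood water at about 0.5, 0.25, 0.125 and 0.063 kg/ha. Injury was rated visually on a 0-9 scale against a control 3-4 weeks after treatment.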

[2] = test system: IPOMOEA SPP.; assay: Postemergence herbicidal evaluation, IPOSS (Morningglory spp.)
Procedure, shortened: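 Seedlings of morningglory (Ipomoea spp.) were raised in jiffy flats for roughly two weeks. They were then sprayed postemergence through a nozzle at 40 psi with test compound dispersed in 50/50 acetone/water containing 0.5% TWEEN®20 surfactant. Plants were kept on greenhouse benches under standard care and visually rated 0-9 against controls four to five weeks after treatment.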

[3] = test system: ECHINOCHLOA CRUS-GALLI, (L) BEAU; assay: Postemergence herbicidal evaluation, ECHCG (Barnyardgrass); design: key to ECHCG rating / Herbicidal effect rating, ECHCG / ECHCG: 0-9 visual rating scale vs untreated control
Procedure, shortened: (§2)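 Two-week-old seedlings sprayed with compound in 50/50 acetone/water plus 0.5% TWEEN 20 at about 0.125–0.500 kg/ha via nozzle at 40 psi. Kept in greenhouse; rated visually 4–5 weeks after treatment on a 0–9 scale versus untreated control, averaging repeat tests.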

[4] = test system: ORYZA SATIVA, L. TEBONNET; assay: Preemergence herbicidal evaluation, ORYSAT (Rice, Tebonnet); details: rated four to five weeks after treatment
Description: (§3) Results of herbicide evaluation are expressed on a rating scale (0-9). The scale is based upon a visual observation of plant stand, vigor, malformation, size, chlorosis and overall plant appearance as compared with a control.
(§4) The preemergence herbicidal activity of the test compounds of the present invention is exemplified by the following tests in which the seeds of a variety of monocotyledonous and dicotyledonous plants are separately mixed with potting soil and planted on top of approximately one inch of soil in separate pint cups. […] The treated cups are then placed on greenhouse benches, watered and cared for in accordance with conventional greenhouse procedures. From four to five weeks after treatment, the tests are terminated and each cup is examined and rated according to the rating system provided in Example 40.
(§5) The compounds evaluated are reported by compound number given in Example 40.

[5] = test system: CYPERUS IRIA; assay: Preemergence weed control under flooded paddy conditions, CYPIR (Rice Flatsedge); details: 0.500 kg/ha, preemergence, 3-4 weeks after treatment
Procedure, shortened: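 Seeds or propagating organs of rice flatsedge were planted in the top 0.5 cm of silt loam soil in 32 oz. plastic containers, 10.5 cm across and without drainage holes. Water was kept 1.5 to 3 cm above the soil throughout. Treated containers were kept on greenhouse benches, and herbicidal effect was visually rated on a 0-9 scale against a control.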

[6] = test system: CASSIA OBTUSIFOLIA, L.; assay: Postemergence herbicidal evaluation, CASOB (Sicklepod); design: key to CASOB rating / Herbicidal effect rating, CASOB / CASOB: 0-9 visual rating scale vs untreated control
Procedure, shortened: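 Greenhouse postemergence test. Seedlings (~2 wk) sprayed at 40 psi; dose ~0.125–0.500 kg/ha in acetone/water (1:1), 0.5% TWEEN 20. Scored 0–9 at 4–5 wk.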

[7] = test system: SETARIA VIRIDIS, (L) BEAU; assay: Postemergence herbicidal evaluation, SETVI (Foxtail, Green); design: key to SETVI rating / Herbicidal effect rating, SETVI / SETVI: 0-9 visual rating scale vs untreated control
Procedure, shortened: as §2

[8] = test system: GLYCINE MAX(L) MERR. CV. WILLIAMS; assay: Preemergence herbicidal evaluation, GLXMAW (Soybean, Williams); details: rated four to five weeks after treatment
Procedure, shortened: (§6)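 First, seeds in potting soil are sown atop soil in cups. Next, the surface is sprayed with test compound in aqueous acetone at roughly 0.125 to 0.50 kg per hectare. After four to five weeks of greenhouse care, each cup is scored 0-9 against a control.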

[9] = test system: AMBROSIA ARTEMISIIFOLIA, L.; assay: Postemergence herbicidal evaluation, AMBEL (Ragweed, Common)
Procedure, shortened: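 Common ragweed (Ambrosia artemisiifolia) seedlings were raised in jiffy flats for roughly two weeks, then sprayed postemergence through a nozzle at 40 psi with the test compound dispersed in 50/50 acetone/water carrying 0.5% TWEEN®20. The plants were kept on greenhouse benches under conventional care. Four to five weeks later, injury was rated visually on a 0-9 scale, and repeat tests were averaged.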

[10] = test system: ZEA MAYS L.; assay: Preemergence herbicidal evaluation, ZEAMX (Corn, Field); details: rated four to five weeks after treatment
Description: as §3, §4, §5

[11] = test system: […], PRESL.; assay: Preemergence weed control under flooded paddy conditions, MOOVA (Monochoria); details: 0.500 kg/ha, preemergence, 3-4 weeks after treatment
Procedure, shortened: as §1

[12] = test system: GALIUM APARINE; assay: Postemergence herbicidal evaluation, GALAP (Galium); design: key to GALAP rating / Herbicidal effect rating, GALAP / GALAP: 0-9 visual rating scale vs untreated control
Procedure, shortened: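 Galium (GALAP) seedlings were raised in jiffy flats for about two weeks, then sprayed with test compounds dispersed in 50/50 acetone/water containing 0.5% TWEEN®20, delivered through a nozzle at 40 psi. Plants were kept on greenhouse benches and visually rated 0-9 against a control four to five weeks later; repeat tests were averaged.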

[13] = test system: CYPERUS SEROTINUS, ROTTB.; assay: Preemergence weed control under flooded paddy conditions, CYPSE (Flatsedge); details: 0.500 kg/ha, preemergence, 3-4 weeks after treatment
Procedure, shortened: as §1

[14] = test system: ECHINOCHLOA ORYZOIDES (ARD.)FRITSCH; assay: Preemergence weed control under flooded paddy conditions, ECHORC (Watergrass (Calif.)); details: 0.500 kg/ha, preemergence, 3-4 weeks after treatment
Procedure, shortened: as §1

[15] = test system: ORYZA SATIVA, L. TEBONNET; assay: Rice tolerance to post-transplant applications under flooded paddy conditions, ORYSAT (Rice, Tebonnet); details: post-transplant rice, 3-4 weeks after treatment
Procedure, shortened: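 Two ten-day-old Tebonnet rice seedlings transplanted into silt loam, flooded 1.5–3 cm; three days later the water surface treated with compounds in acetone/water at about 0.5, 0.25, 0.125 and 0.063 kg/ha. Visual 0–9 injury rating versus control after 3–4 weeks in greenhouse.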

[16] = test system: ABUTILON THEOPHRASTI, MEDIC.; assay: Postemergence herbicidal evaluation, ABUTH (Velvetleaf)
Procedure, shortened: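 Velvetleaf (Abutilon theophrasti) seedlings were raised in jiffy flats for about two weeks and then sprayed postemergence. The test compound was dispersed in a 50/50 acetone/water mixture containing 0.5% TWEEN®20 and applied through a nozzle operating at 40 psi. Plants were kept on greenhouse benches and rated 0-9 four to five weeks after treatment.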

[17] = test system: ABUTILON THEOPHRASTI, MEDIC.; assay: Preemergence herbicidal evaluation, ABUTH (Velvetleaf); details: rated four to five weeks after treatment
Description: as §3, §4, §5

[18] = test system: CHENOPODIUM ALBUM, L.; assay: Preemergence herbicidal evaluation, CHEAL (Lambsquarters, Common); details: rated four to five weeks after treatment
Procedure, shortened: as §6

[19] = test system: AMBROSIA ARTEMISIIFOLIA, L.; assay: Preemergence herbicidal evaluation, AMBEL (Ragweed, Common); details: rated four to five weeks after treatment
Description: as §3, §4, §5

[20] = test system: ECHINOCHLOA CRUS-GALLI, (L) BEAU; assay: Preemergence herbicidal evaluation, ECHCG (Barnyardgrass); details: rated four to five weeks after treatment
Procedure, shortened: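 Barnyardgrass seeds were mixed with potting soil and planted on about one inch of soil in pint cups for preemergence testing. Treated cups were kept on greenhouse benches, watered and maintained by standard greenhouse practice. After four to five weeks, each cup was visually rated on a 0-9 scale against an untreated control.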

[21] = test system: TRITICUM AESTIVUM, CV. APOLLO; assay: Preemergence herbicidal evaluation, TRZAWO (Wheat, Winter, CV. APOLLO); details: rated four to five weeks after treatment
Description: as §3, §4, §5

Structure (SMILES): COC(=O)Cn1c(=O)n(C)c(=O)n(-c2cc(Oc3ccc(C#N)cc3)ccc2[N+](=O)[O-])c1=O [Compound 32, Methyl 3-[5-(p-cyanophenoxy)-2-nitrophenyl]-tetrahydro-5-methyl-2,4,6-trioxo-s-triazine-1(2H)-acetate]
- Herbicidal effect rating, SAGPY ([1]; 0.500 kg/ha): 0.0
- IPOSS rating ([2]; Rate 0.125 kg/ha): 0.0
- IPOSS rating ([2]; Rate 0.250 kg/ha): 0.0
- IPOSS rating ([2]; Rate 0.500 kg/ha): 0.0
- ECHCG rating ([3]; Rate 0.125 kg/ha): 0.0
- ECHCG rating ([3]; Rate 0.250 kg/ha): 0.0
- ECHCG rating ([3]; Rate 0.500 kg/ha): 0.0
- ORYSAT herbicidal rating ([4]; Rate 0.125 kg/ha): 2.0
- ORYSAT herbicidal rating ([4]; Rate 0.250 kg/ha): 2.0
- ORYSAT herbicidal rating ([4]; Rate 0.500 kg/ha): 2.0
- Herbicidal effect rating, CYPIR [5]: 0.0
- CASOB rating ([6]; Rate 0.125 kg/ha): 0.0
- CASOB rating ([6]; Rate 0.250 kg/ha): 0.0
- CASOB rating ([6]; Rate 0.500 kg/ha): 0.0
- SETVI rating ([7]; Rate 0.125 kg/ha): 0.0
- SETVI rating ([7]; Rate 0.250 kg/ha): 0.0
- SETVI rating ([7]; Rate 0.500 kg/ha): 0.0
- GLXMAW herbicidal rating ([8]; Rate 0.125 kg/ha): 0.0
- GLXMAW herbicidal rating ([8]; Rate 0.250 kg/ha): 0.0
- GLXMAW herbicidal rating ([8]; Rate 0.500 kg/ha): 0.0
- AMBEL rating ([9]; Rate 0.125 kg/ha): 0.0
- AMBEL rating ([9]; Rate 0.250 kg/ha): 0.0
- AMBEL rating ([9]; Rate 0.500 kg/ha): 0.0
- ZEAMX herbicidal rating ([10]; Rate 0.125 kg/ha): 0.0
- ZEAMX herbicidal rating ([10]; Rate 0.250 kg/ha): 0.0
- ZEAMX herbicidal rating ([10]; Rate 0.500 kg/ha): 0.0
- Herbicidal effect rating, MOOVA [11]: 0.0
- GALAP rating ([12]; Rate 0.125 kg/ha): 0.0
- GALAP rating ([12]; Rate 0.250 kg/ha): 0.0
- GALAP rating ([12]; Rate 0.500 kg/ha): 0.0
- Herbicidal effect rating, CYPSE [13]: 0.0
- Herbicidal effect rating, ECHORC [14]: 0.0
- Herbicidal effect rating, ORYSAT ([15]; 0.500 kg/ha): 0.0
- ABUTH rating ([16]; Rate 0.125 kg/ha): 0.0
- ABUTH rating ([16]; Rate 0.250 kg/ha): 0.0
- ABUTH rating ([16]; Rate 0.500 kg/ha): 0.0

Structure (SMILES): Cn1c(=O)n(CC(=O)OC(C)(C)C)c(=O)n(-c2cc(Oc3c(F)cc(C(F)(F)F)cc3Cl)ccc2F)c1=O [Compound 41, Tert-butyl 3-{[5-(2-chloro-α,α,α,6-tetra-fluoro-p-tolyl)oxy]-2-fluorophenyl}tetra-hydro-5-methyl-2,4,6-trioxo-s-triazine-1(2H)-acetate]
- ABUTH herbicidal rating ([17]; Rate 0.125 kg/ha): 0.0
- ABUTH herbicidal rating ([17]; Rate 0.250 kg/ha): 0.0
- ABUTH herbicidal rating ([17]; Rate 0.500 kg/ha): 0.0
- Herbicidal effect rating, SAGPY ([1]; 0.063 kg/ha): 0.0
- Herbicidal effect rating, SAGPY ([1]; 0.125 kg/ha): 0.0
- Herbicidal effect rating, SAGPY ([1]; 0.250 kg/ha): 0.0
- Herbicidal effect rating, SAGPY ([1]; 0.500 kg/ha): 0.0
- CHEAL herbicidal rating ([18]; Rate 0.125 kg/ha): 9.0
- CHEAL herbicidal rating ([18]; Rate 0.250 kg/ha): 9.0
- CHEAL herbicidal rating ([18]; Rate 0.500 kg/ha): 9.0
- AMBEL herbicidal rating ([19]; Rate 0.125 kg/ha): 0.0
- AMBEL herbicidal rating ([19]; Rate 0.250 kg/ha): 0.0
- AMBEL herbicidal rating ([19]; Rate 0.500 kg/ha): 0.0
- ECHCG herbicidal rating ([20]; Rate 0.125 kg/ha): 0.0
- ECHCG herbicidal rating ([20]; Rate 0.250 kg/ha): 0.0
- ECHCG herbicidal rating ([20]; Rate 0.500 kg/ha): 0.0
- TRZAWO herbicidal rating ([21]; Rate 0.125 kg/ha): 0.0
- TRZAWO herbicidal rating ([21]; Rate 0.250 kg/ha): 0.0
- TRZAWO herbicidal rating ([21]; Rate 0.500 kg/ha): 0.0
- Herbicidal effect rating, ORYSAT ([15]; 0.063 kg/ha): 0.0
- Herbicidal effect rating, ORYSAT ([15]; 0.125 kg/ha): 0.0
- Herbicidal effect rating, ORYSAT ([15]; 0.250 kg/ha): 0.0
- Herbicidal effect rating, ORYSAT ([15]; 0.500 kg/ha): 0.0
